Inhibition data for 19 compounds are collected here from ChEMBL document CHEMBL5665443, “Enzyme Inhibitor Single Concentration assay results for EUbOPEN Chemogenomics Library” (2024).

Common to all, as to settings: Compound Concentration 10.0 uM, Hit No
Assay [1] deals with Methyl-CpG-binding domain protein 4 (Homo sapiens) (UniProt O95243).
Description: Inhibition of MBD4 by quantifying inhibition of MBD4-mediated cleavage and dissociation of quenched duplex DNA oligonucleotides, measured as fluorescence at 594 nm. To generate a functional strand incision and increase turn-over this assay is coupled to APE1.
Assay [2] deals with DNA-3-methyladenine glycosylase (Homo sapiens) (UniProt P29372).
Description: Inhibition of MPG by quantifying inhibition of MPG-mediated cleavage and dissociation of quenched duplex DNA oligonucleotides, measured as fluorescence at 594 nm. To generate a functional strand incision and increase turn-over this assay is coupled to APE1.
The target in assay [3] is T1, Adenine DNA glycosylase (Homo sapiens) (UniProt Q9UIF7).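 Further: human MUTYH activity read as 594 nm fluorescence from cleavage and release of a quenched DNA duplex, coupled with APE1 for strand incision, lower signal meaning inhibition.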
T1 sequence (whole entry): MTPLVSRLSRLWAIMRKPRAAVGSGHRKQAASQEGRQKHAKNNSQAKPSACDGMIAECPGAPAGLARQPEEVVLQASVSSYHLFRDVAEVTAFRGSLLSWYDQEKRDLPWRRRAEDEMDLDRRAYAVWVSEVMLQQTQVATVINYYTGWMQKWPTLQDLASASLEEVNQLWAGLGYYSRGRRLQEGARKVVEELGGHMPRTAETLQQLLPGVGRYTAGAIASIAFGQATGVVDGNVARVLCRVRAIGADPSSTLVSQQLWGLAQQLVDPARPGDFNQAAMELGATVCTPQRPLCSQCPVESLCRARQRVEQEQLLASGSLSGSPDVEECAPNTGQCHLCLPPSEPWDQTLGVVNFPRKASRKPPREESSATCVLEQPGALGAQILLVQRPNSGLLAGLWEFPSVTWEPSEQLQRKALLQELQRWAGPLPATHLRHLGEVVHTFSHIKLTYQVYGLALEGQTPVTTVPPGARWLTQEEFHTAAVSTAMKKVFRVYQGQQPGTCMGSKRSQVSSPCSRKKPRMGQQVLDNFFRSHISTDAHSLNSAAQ
Description: Inhibition of MUTYH by quantifying inhibition of MUTYH-mediated cleavage and dissociation of quenched duplex DNA oligonucleotides, measured as fluorescence at 594 nm. To generate a functional strand incision and increase turn-over this assay is coupled to APE1.

The target in assay [4] is Endonuclease 8-like 1 (Homo sapiens) (UniProt Q96FI4).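 Further: fluorescence at 594 nm from quenched duplex DNA oligonucleotides released by NEIL1 cleavage and strand separation, reported as reduction of this enzyme activity.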
Chain of Endonuclease 8-like 1 (Homo sapiens) (Q96FI4 whole entry): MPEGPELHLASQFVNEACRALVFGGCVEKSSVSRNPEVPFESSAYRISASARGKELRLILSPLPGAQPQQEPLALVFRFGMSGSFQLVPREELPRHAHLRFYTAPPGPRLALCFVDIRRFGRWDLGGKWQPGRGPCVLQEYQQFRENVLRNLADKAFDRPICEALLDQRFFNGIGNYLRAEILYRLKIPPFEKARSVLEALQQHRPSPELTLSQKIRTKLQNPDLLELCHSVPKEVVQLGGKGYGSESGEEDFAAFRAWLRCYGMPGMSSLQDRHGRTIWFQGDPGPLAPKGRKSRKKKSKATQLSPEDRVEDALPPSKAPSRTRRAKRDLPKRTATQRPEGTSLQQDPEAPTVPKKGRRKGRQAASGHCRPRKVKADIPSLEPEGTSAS
Description: Inhibition of NEIL1 by quantifying inhibition of NEIL1-mediated cleavage and dissociation of quenched duplex DNA oligonucleotides, measured as fluorescence at 594 nm.
For assay [5], the target named is T2, Endonuclease 8-like 2 (Homo sapiens) (UniProt Q969S2).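 Further: fluorescence at 594 nm reports NEIL2 cutting and release of a quenched double-stranded DNA oligo substrate, reduced signal read as inhibition.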
T2 sequence (whole entry): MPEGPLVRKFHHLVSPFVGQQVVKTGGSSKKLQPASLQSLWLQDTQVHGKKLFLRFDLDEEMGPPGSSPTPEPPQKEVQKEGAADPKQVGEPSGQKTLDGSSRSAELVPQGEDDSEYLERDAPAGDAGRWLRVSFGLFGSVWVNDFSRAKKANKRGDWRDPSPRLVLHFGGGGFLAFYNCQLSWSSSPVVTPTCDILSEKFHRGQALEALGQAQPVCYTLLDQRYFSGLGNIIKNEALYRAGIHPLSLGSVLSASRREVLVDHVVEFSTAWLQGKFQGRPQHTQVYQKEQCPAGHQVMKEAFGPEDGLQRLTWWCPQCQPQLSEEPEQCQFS
Description: Inhibition of NEIL2 by quantifying inhibition of NEIL2-mediated cleavage and dissociation of quenched duplex DNA oligonucleotides, measured as fluorescence at 594 nm.

The target in assay [6] is T3, Endonuclease III-like protein 1 (Homo sapiens) (UniProt P78549).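 Further: enzyme assay tracking NTHL1 cutting and release of a quenched double-stranded DNA oligo substrate, read as fluorescence at 594 nm.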
T3 sequence (whole entry): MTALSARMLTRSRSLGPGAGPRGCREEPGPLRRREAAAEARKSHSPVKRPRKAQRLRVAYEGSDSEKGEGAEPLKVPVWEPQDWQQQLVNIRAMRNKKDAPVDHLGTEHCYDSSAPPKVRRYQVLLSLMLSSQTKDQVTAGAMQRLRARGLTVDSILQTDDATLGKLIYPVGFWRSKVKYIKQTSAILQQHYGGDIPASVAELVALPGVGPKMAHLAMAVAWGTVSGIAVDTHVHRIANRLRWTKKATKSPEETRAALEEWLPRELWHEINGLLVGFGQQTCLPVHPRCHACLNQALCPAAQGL
Description: Inhibition of NTHL1 by quantifying inhibition of NTHL1-mediated cleavage and dissociation of quenched duplex DNA oligonucleotides, measured as fluorescence at 594 nm.

In assay [7] the target is G/T mismatch-specific thymine DNA glycosylase (Homo sapiens) (UniProt Q13569).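 Further: human TDG cleavage of quenched duplex DNA oligonucleotides coupled to APE1, strand release read as fluorescence at 594 nm, inhibition of TDG activity.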
Chain of G/T mismatch-specific thymine DNA glycosylase (Homo sapiens) (Q13569 whole entry): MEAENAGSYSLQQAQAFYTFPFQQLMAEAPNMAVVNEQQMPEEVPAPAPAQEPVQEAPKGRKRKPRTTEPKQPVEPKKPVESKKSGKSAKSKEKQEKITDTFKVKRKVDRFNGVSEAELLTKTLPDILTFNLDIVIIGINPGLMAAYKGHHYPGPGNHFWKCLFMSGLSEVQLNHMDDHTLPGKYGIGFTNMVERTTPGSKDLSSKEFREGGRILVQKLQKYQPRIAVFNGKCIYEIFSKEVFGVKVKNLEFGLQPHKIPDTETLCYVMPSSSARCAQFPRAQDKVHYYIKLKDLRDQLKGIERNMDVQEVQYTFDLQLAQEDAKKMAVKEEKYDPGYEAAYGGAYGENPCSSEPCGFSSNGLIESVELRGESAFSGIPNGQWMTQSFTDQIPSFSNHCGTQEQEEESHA
Description: Inhibition of TDG by quantifying inhibition of TDG-mediated cleavage and dissociation of quenched duplex DNA oligonucleotides, measured as fluorescence at 594 nm. To generate a functional strand incision and increase turn-over this assay is coupled to APE1.
Assay [8] has as its target Uracil-DNA glycosylase (Homo sapiens) (UniProt P13051).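 Further: UNG excision on a quenched double-stranded DNA oligo probe, with APE1 added for strand incision and turnover, read as fluorescence at 594 nm as strands separate.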
Description: Inhibition of UNG by quantifying inhibition of UNG-mediated cleavage and dissociation of quenched duplex DNA oligonucleotides, measured as fluorescence at 594 nm. To generate a functional strand incision and increase turn-over this assay is coupled to APE1.
For assay [9], the target named is N-glycosylase/DNA lyase (Homo sapiens) (UniProt O15527).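 Further: OGG1 cleavage of a quenched duplex DNA oligonucleotide, coupled to APE1 for strand incision, read as fluorescence at 594 nm.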
Chain of N-glycosylase/DNA lyase (Homo sapiens) (O15527 whole entry): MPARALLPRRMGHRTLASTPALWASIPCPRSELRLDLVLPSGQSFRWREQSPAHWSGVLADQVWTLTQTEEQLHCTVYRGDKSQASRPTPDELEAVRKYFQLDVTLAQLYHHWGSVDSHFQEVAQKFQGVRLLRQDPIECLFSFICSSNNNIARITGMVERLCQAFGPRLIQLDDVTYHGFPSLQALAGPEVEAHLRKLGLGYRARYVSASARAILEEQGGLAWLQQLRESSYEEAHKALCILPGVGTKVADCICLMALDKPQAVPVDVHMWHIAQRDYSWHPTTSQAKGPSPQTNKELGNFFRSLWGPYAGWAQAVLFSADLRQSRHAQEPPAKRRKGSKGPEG
Description: Inhibition of OGG1 by quantifying inhibition of OGG1-mediated cleavage and dissociation of quenched duplex DNA oligonucleotides, measured as fluorescence at 594 nm. To generate a functional strand incision and increase turn-over this assay is coupled to APE1.
In assay [10] the target is T4, Single-strand selective monofunctional uracil DNA glycosylase (Homo sapiens) (UniProt Q53HV7).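 Further: enzymatic SMUG1 assay coupled with APE1, reading fluorescence at 594 nm released when a quenched double-stranded DNA oligonucleotide substrate is cleaved and separated.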
T4 sequence (whole entry): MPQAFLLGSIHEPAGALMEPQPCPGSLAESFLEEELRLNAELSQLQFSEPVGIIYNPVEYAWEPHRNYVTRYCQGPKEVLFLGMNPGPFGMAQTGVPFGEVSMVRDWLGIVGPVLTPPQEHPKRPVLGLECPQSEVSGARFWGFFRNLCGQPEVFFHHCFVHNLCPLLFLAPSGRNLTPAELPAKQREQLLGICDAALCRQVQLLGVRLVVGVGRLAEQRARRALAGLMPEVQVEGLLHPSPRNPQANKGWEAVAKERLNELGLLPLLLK
Description: Inhibition of SMUG1 by quantifying inhibition of SMUG1-mediated cleavage and dissociation of quenched duplex DNA oligonucleotides, measured as fluorescence at 594 nm. To generate a functional strand incision and increase turn-over this assay is coupled to APE1.

Chain of Uracil-DNA glycosylase (Homo sapiens) (P13051 whole entry): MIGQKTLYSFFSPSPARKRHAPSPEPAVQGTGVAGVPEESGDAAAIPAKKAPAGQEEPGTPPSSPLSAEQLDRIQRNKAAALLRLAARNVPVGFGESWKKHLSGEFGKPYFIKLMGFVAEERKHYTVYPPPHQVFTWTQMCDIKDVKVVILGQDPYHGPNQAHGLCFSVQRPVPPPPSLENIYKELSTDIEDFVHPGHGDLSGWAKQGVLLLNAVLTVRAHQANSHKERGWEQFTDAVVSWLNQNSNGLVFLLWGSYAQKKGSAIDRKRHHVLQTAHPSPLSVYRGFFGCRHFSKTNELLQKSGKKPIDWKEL
Chain of DNA-3-methyladenine glycosylase (Homo sapiens) (P29372 whole entry): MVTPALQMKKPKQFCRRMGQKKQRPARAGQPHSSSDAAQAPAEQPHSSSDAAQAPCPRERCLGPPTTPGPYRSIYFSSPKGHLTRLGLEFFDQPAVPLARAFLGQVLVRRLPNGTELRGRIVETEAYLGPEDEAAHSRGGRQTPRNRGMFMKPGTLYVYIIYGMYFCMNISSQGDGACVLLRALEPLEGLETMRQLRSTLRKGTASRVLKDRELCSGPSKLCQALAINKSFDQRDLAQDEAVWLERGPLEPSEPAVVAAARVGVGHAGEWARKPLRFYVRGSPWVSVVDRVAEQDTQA
Chain of Methyl-CpG-binding domain protein 4 (Homo sapiens) (O95243 whole entry, the tested form may be a part): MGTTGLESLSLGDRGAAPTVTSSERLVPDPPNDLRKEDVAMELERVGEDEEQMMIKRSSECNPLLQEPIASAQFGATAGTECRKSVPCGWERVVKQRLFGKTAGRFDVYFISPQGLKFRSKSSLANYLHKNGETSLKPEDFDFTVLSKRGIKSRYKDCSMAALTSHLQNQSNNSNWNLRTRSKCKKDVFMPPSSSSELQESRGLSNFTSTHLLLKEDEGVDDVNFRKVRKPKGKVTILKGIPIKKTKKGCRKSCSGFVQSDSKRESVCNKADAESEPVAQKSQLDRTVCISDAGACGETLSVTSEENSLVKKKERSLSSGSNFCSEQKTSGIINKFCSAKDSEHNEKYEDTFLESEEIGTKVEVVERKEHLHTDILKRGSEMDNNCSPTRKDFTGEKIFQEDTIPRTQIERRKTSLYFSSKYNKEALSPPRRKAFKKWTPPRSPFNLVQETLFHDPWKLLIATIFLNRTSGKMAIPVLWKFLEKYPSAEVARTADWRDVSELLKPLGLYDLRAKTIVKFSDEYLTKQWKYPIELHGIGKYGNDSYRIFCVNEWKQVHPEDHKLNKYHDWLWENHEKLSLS

A word on the inhibition: it is the relative decrease from the control value, in per cent. As to `C[C@@H](NC(=O)Cc1ccc(C2CC2)cc1)c1ccc(OCC(F)(F)F)cn1`, the inhibition in assay [1] is 4.9%; in assay [2], 10.8%; in [3], -6.51%; in assay [4], 0.602%; in assay [5], -6.21%; in assay [6], 11.3%. For the same compound, the inhibition in [7] is 4.49%; in assay [8], -2.14%.

`CCOC(=O)c1ncn2c1[C@@H]1CCCN1C(=O)c1cc(OC)ccc1-2`: the inhibition is 14.4% in assay [1]; -5.68% in [2]; -3.58% in assay [3]; -2.51% in assay [4]; -4.43% in assay [5]; -3.56% in [6]. Also, the inhibition in [7] was -5.12%; in [8] it was -7.79%.

On to `c1cnc2cc3c(cc2n1)[C@@H]1CNC[C@H]3C1`, for which the inhibition in [1] turned out to be 15.3%; in [2], 9.33%; in [3], 34.7%; in assay [4], 4.16%; in [6], 12.9%; in [7], 13.7%. The inhibition in assay [8] is -9.92%.

As to `CC1(C)Cc2c(CN3CCC4(CC3)CCN(C(=O)c3ccc(N)cn3)CC4)cccc2O1`, the inhibition in assay [1] was 21.4%; in assay [2] it was 8.62%; in assay [3] it was 2.36%; in assay [4], 7.27%; in assay [5] it was -6.46%; in assay [6] it was 8.82%. Besides, the inhibition in assay [7] was -2.08%.

As for `CN1CCN(Cc2ccc(-c3cccc(C(=O)Nc4ccccc4CC(=O)O)c3)cc2)CC1`, the inhibition in [1] was 18.1%; in assay [2], 12.7%; in assay [3], 17.7%; in assay [4] it was 17.2%; in assay [5], -2.64%; in assay [6] it was -1.91%. Further, the inhibition in assay [7] is 14.1%; in [8], -2.65%.

On to `CNC(=O)[C@H]1O[C@@H](n2cnc3c(NCc4cccc(I)c4)ncnc32)[C@H](O)[C@@H]1O`, for which the inhibition in assay [1] is 10.4%; in assay [2] it was 2.83%; in [3] it was 14.2%; in [4], -7.1%; in [5] it was -8.76%; in assay [6] it was -2.73%. The inhibition was 6.72% in [7] and -5.89% in assay [8].

For `C[C@H](C[C@H](N)C(=O)O)C(=O)O`, the inhibition in assay [1] is 13.5%; in assay [2], 14.2%; in assay [3] it was 17%; in assay [4], -6.51%; in assay [5] it was 0.414%; in assay [6], -6.04%. The inhibition in assay [7] worked out at 0.112%.

Turning to `CN1CC[C@@]23CCCC[C@@H]2[C@@H]1Cc1ccc(O)cc13`, the inhibition in assay [1] was 3.69%; in assay [2], -0.416%; in assay [3], -5.81%; in [4], -2.06%; in assay [5], -9.52%; in assay [6] it was 14.6%. The figures for the inhibition in assay [7] and in assay [8] were -3.74% and -7.94%, respectively.

On to `O=C(O)[C@H]1O[C@H](OP(=O)(O)OP(=O)(O)OC[C@H]2O[C@@H](n3ccc(=O)[nH]c3=O)[C@H](O)[C@@H]2O)[C@H](O)[C@@H](O)[C@@H]1O`, for which the inhibition in assay [1] was 18.3%; in assay [2] it was 24.7%; in [3] it was 14.9%; in assay [5] it was -7.23%; in assay [6], 15.4%; in assay [7], 15.8%.

On to `Cc1ccccc1C(=O)Nc1ccc(C(=O)N2CCCC(N(C)C)c3ccccc32)cc1` (stereo not drawn), for which the inhibition in assay [1] was found to be 19.4%; in assay [2] it was 11.6%; in assay [3], 10.3%; in [4], 11.6%; in [6] it was 21.2%; in [7], 18.4%. In [8], the inhibition is -2.08%.

Turning to `CCN(c1ccccc1)c1cc(NC)[n+](C)c(C)n1`, the inhibition in [1] is 25.3%; in [2], 1.67%; in assay [3], 7.99%; in [4], -3.4%; in assay [5], 4.75%; in assay [6] it was 30.3%. In addition, the inhibition in assay [7] is 7.48%; in assay [8], -8.21%.

For the compound `CCCNC(=O)c1nnc2c(-c3c(F)cccc3OC)cccc2c1N`, the inhibition was 26.8% in assay [1]; 12.4% in assay [2]; 24.9% in assay [3]; 10.5% in assay [4]; -2.64% in assay [5]; 27.8% in assay [6]. In addition, the values for the inhibition in assay [7] and in assay [8] were 24.5% and -1.98%, respectively.

`CN(Cc1cccc(F)c1CNc1cc(F)c(S(=O)(=O)Nc2cscn2)c(F)c1)C(C)(C)C`: the inhibition in assay [1] was 28.6%; in [2], 20.1%; in [3] it was 40.5%; in [4] it was 2.08%; in [5], -2.39%; in [6], 18.7%. Further, the values for the inhibition in [7] and in [8] were 4.92% and -9.64%, respectively.

Turning to `Nc1nc(CC(=O)Nc2ccc(CCNC[C@H](O)c3ccccc3)cc2)cs1`, the inhibition in assay [1] was 6.31%; in [2] it was 5.02%; in assay [3], 7.21%; in assay [4], 3.71%; in [5], -2.64%; in assay [6], 22%. For the same compound, the inhibition in assay [7] was 2.71%; in [8] it was -1.78%.

For `Cc1cc(C)c(NC(=O)C2CC3CCC2C3)c(C)c1` (stereo not drawn), the inhibition is 26.4% in assay [1]; 7.56% in [2]; 27.8% in assay [3]; -1.18% in assay [4]; 6.35% in assay [6]; 5.7% in [7]. Further, the inhibition in [8] was -9.01%.

On to `CC1(C)N=C(C2CCCCC2)c2ccc(C#N)cc2N(c2ccc(NCCNC3CCOCC3)cc2)C1=O`, for which the inhibition in assay [1] was 10.6%; in [2], 7.31%; in assay [3], 1.14%; in assay [4] it was 4.75%; in assay [5] it was -3.41%; in [6], 19.6%. For the same compound, in assay [7], the inhibition is 5.19%.

Take `COC[C@@H](c1ccc(C(F)(F)F)cc1)N1CCN(C2(C)CCN(C(=O)c3c(C)ncnc3C)CC2)C[C@@H]1C`: the inhibition in assay [1] was 11.1%; in assay [2] it was -7.67%; in assay [3] it was 7.5%; in [4], -4.58%; in assay [6], 16.2%; in [7], -1.76%. Further, in assay [8], the inhibition was -3.97%.

For the compound `CN1CCC(C(=O)c2cccc(NC(=O)c3c(F)cc(F)cc3F)n2)CC1`, the inhibition in assay [2] is 2.3%; in assay [3], 9.62%; in assay [4] it was 4.54%; in [5], -1.73%; in [6], -6.14%; in [9] it was -2.69%. Further, the inhibition in assay [10] was -9.63%; in assay [7], 19.6%; in assay [8], -8.11%.

For `O=C1c2ccccc2C(Cc2ccncc2)(Cc2ccncc2)c2ccccc21`, the inhibition is 23.6% in assay [1]; 12.1% in [2]; 8.2% in [3]; 6.83% in assay [4]; -2.64% in [5]; 20.4% in [6]. For the same compound, the inhibition in assay [7] is 21.3%.
